Data taken from US7115594B2, “Use of 2-methylene-19-nor-20(S)-1α,25-dihydroxyvitamin D3 to increase bone strength” (Wisconsin Alumni Research Foundation, priority 2000, dated 2006).
“Also recorded” adds a separate entry of the source.

How the values were obtained:
[1] = test system: ovariectomized old female rats; assay: Strength of femurs and vertebrae to mechanical stress (animals of Table 1); format: in vivo; conditions: for Stress Value Femur / Stress Value Vertebra: ovariectomized rats
[2] = test system: ovariectomized old female rats; assay: Treatment of ovariectomized old female rats (bone mass, serum calcium, femur ash); conditions: for BMC / BMC/Body Wt. / BMD / Femur Ash / Femur Ash (%) / Body Wt. / Serum CA: ovariectomized rats, mean ± SEM
[3] = molecular target: T1, porcine intestinal vitamin D receptor (Sus scrofa, UniProt A3RGC1); assay: Competitive binding of [3H]-1,25-(OH)2-D3 to the porcine intestinal vitamin D receptor; conditions: FIG. 1, standard 1,25-(OH)2D3
T1 construct: from tissue; host or cells: pig intestine (nuclear receptor preparation)
T1 sequence (A3RGC1 1-427): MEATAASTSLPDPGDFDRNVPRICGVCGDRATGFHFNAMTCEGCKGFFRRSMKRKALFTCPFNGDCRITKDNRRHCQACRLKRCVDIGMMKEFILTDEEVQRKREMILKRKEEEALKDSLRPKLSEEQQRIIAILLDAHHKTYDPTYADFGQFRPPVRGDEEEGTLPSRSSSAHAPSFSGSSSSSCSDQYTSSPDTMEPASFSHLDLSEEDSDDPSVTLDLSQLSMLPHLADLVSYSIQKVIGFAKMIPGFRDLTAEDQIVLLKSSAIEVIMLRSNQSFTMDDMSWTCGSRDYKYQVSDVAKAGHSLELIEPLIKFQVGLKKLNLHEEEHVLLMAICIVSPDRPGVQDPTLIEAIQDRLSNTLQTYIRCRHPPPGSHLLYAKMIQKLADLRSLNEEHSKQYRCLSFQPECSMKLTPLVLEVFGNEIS
Procedure: FIG. 1 is a graph illustrating the relative activity of 2-methylene-19-nor-20(S)-1α,25-dihydroxyvitamin D3, 2-methylene-19-nor-1α,25-dihydroxyvitamin D3 and 1α,25-dihydroxyvitamin D3 to compete for binding of [^3H]-1,25-(OH)2-D3 to the vitamin D pig intestinal nuclear receptor;
Competitive binding of the analogs to the porcine intestinal receptor was carried out by the method described by Dame et al (Biochemistry 25, 4523–4534, 1986).

[4] = test system: intestinal calcium transport; assay: Intestinal calcium transport activity; format: in vivo; conditions: FIG. 2
Text: FIG. 2 is a graph illustrating the intestinal calcium transport activity of 2-methylene-19-nor-20(S)-1α,25-dihydroxyvitamin D3 as compared to 1α,25-dihydroxyvitamin D3;
The in vivo tests of increasing serum calcium of rats on a zero calcium diet provides an insight to […] or bone activity of 2MD.

[5] = test system: Rhesus monkeys; assay: Single oral dose in Rhesus monkeys, serum calcium; format: in vivo; conditions: single oral dose of 27 μg; 10 Kg Rhesus monkey; preliminary
Text: FIGS. 7 and 8 snow a six week toxicity study in rats showing that 2MD appears safe at up to 30 pmol/day.
These and other tests indicate that primates will tolerate 2MD extremely well which may give a very large window between efficacy and the danger of hypercalcemia in man.

## C=C1/C(=C\C=C2/CCC[C@]3(C)[C@@H]([C@H](C)CCCC(C)(C)O)CC[C@@H]23)C[C@@H](O)C[C@@H]1O [1,25(OH)2D3, 1α,25-dihydroxyvitamin D3]
[1]; 250 pmol/day/5X/Week
  Stress Value Femur: 118.21 ± 19.85
  Stress Value Vertebra: 19.24 ± 5.66
[1]; 500 pmol/d/3-5X/Week
  Stress Value Femur: 116.47 ± 16.20
  Stress Value Vertebra: 17.14 ± 0.52
[2]; 250 pmol/d 5X/Week, 8 weeks
  BMC: 8.90 ± 0.40 g
  BMC/Body Wt.: 22.4 ± 0.48 mg/g
  BMD: 0.297 ± 0.001 g/cm^2
[2]; 250 pmol/d 5X/Week, 17 weeks
  BMC: 9.6 ± 0.39 g
  BMC/Body Wt.: 24.5 ± 0.87 mg/g
  BMD: 0.308 ± 0.008 g/cm^2
[2]; 250 pmol/d 5X/Week, 30 weeks
  BMC: 10.1 ± 0.30 g
  BMC/Body Wt.: 26.1 ± 0.97 mg/g
  BMD: 0.310 ± 0.007 g/cm^2
  Femur Ash: 417 ± 23 mg
  Femur Ash (%): 60.8 ± 1.1%
[2]; 500 pmol/d 3X/Week, 17 weeks
  BMC: 11.5 ± 0.25 g
  BMC/Body Wt.: 27.6 ± 0.68 mg/g
  BMD: 0.331 ± 0.008 g/cm^2
[2]; 500 pmol/d 3X/Week, 30 weeks
  BMC: 11.8 ± 0.23 g
  BMC/Body Wt.: 28.0 ± 0.69 mg/g
  BMD: 0.328 ± 0.008 g/cm^2
  Femur Ash: 478 ± 7.5 mg
  Femur Ash (%): 61.4 ± 1.3%
[2]; 500 pmol/d 5X/Week, 8 weeks
  BMC: 10.2 ± 0.40 g
  BMC/Body Wt.: 26.3 ± 0.57 mg/g
  BMD: 0.312 ± 0.005 g/cm^2

## C=C1[C@H](O)CC(=C/C=C2\CCC[C@]3(C)[C@@H]([C@@H](C)CCCC(C)(C)O)CC[C@@H]23)C[C@H]1O [2MD, 2-methylene-19-nor-20(S)-1α,25-dihydroxyvitamin D3]
[3]
  binding to the vitamin D receptor compared to 1,25-(OH)2D3: about as active as 1,25(OH)2D3
[3]; listed as 2-methylene-20(S)-19-nor-1,25-(OH)2D3
  binding to the vitamin D receptor compared to 1,25-(OH)2D3: bound equally well
[4]
  activity in stimulating intestinal calcium transport compared to 1,25(OH)2D3: activity similar to that of 1,25-dihydroxyvitamin D3; also recorded: approximately equal that of 1,25-(OH)2D3
[1]; animals shown in Table 1
  breaking strength in the femurs (cortical strength): increases breaking strength in the femurs
  crushing strength in the vertebra (trabecular strength): increases
[1]; 32 pmol/d/2X/Week
  Stress Value Femur: 134.84 ± 14.12
  Stress Value Vertebra: 23.93 ± 6.59
[1]; 65 pmol/d/1X/Week
  Stress Value Femur: 133.71 ± 14.06
  Stress Value Vertebra: 17.07 ± 5.73
[5]
  elevation of serum calcium concentration: does not cause significant elevation of serum calcium concentration; also recorded: without appreciably elevating serum calcium concentration
[2]; 32 pmol given 2 times per week, compared to 1,25(OH)2D3 at high doses 3 times per week
  restoring bone of ovariectomized, old female rats: very effective in restoring bone
[2]; compared to the native hormone / sham-operated controls, FIGS. 4 and 6
  building bone mass in ovariectomized rats: extraordinarily effective in building bone mass; also recorded: causes an increase in bone mass above that of sham-operated controls
[2]; dosage levels used in the bone mass study
  serum calcium concentration in ovariectomized rats: without increasing serum calcium concentration; also recorded: no change in serum calcium
[2]; ovariectomized old female rats
  % ash in the femur: increases % ash in the femur; also recorded: percent ash is unexpectedly increased further
[2]; 32 pmol/d 2X/Week, 8 weeks
  BMC: 8.4 ± 0.13 g
  BMC/Body Wt.: 22.4 ± 0.64 mg/g
  BMD: 0.295 ± 0.009 g/cm^2
  Body Wt.: 375 ± 8.2 g
[2]; 32 pmol/d 2X/Week, 17 weeks
  BMC: 9.7 ± 0.19 g
  BMC/Body Wt.: 26.2 ± 0.92 mg/g
  BMD: 0.313 ± 0.011 g/cm^2
  Body Wt.: 373 ± 11.0 g
[2]; 32 pmol/d 2X/Week, 30 weeks
  BMC: 11.6 ± 0.40 g
  BMC/Body Wt.: 33.4 ± 1.60 mg/g
  BMD: 0.331 ± 0.006 g/cm^2
  Body Wt.: 346 ± 11.0 g
  Femur Ash: 462 ± 21.4 mg
  Femur Ash (%): 65.6 ± 1.7%
  Serum CA: 10.8 ± 0.22 mg/dL
[2]; 65 pmol/d 1X/Week, 8 weeks
  BMC: 8.5 ± 0.23 g
  BMC/Body Wt.: 22.2 ± 0.53 mg/g
  BMD: 0.293 ± 0.004 g/cm^2
  Body Wt.: 408 ± 10.5 g
[2]; 65 pmol/d 1X/Week, 17 weeks
  BMC: 9.6 ± 0.24 g
  BMC/Body Wt.: 24.0 ± 0.80 mg/g
  BMD: 0.312 ± 0.005 g/cm^2
  Body Wt.: 402 ± 11.3 g
[2]; 65 pmol/d 1X/Week, 30 weeks
  BMC: 10.2 ± 0.33 g
  BMC/Body Wt.: 26.0 ± 1.10 mg/g
  BMD: 0.310 ± 0.009 g/cm^2
  Body Wt.: 393 ± 15.0 g
  Femur Ash: 443 ± 11.6 mg
  Femur Ash (%): 62.5 ± 0.57%
  Serum CA: 10.7 ± 0.46 mg/dL
